Source: US20250002918A1, “COMPOSITIONS AND METHODS FOR TREATMENT OF MIC60 DEPLETED CANCERS AND METASTASIS” (The Wistar Institute of Anatomy and Biology, priority 2021, published 2025)

Experiments:
[1] = system: PC3 cells stably transduced with pLKO or Mic60-directed shRNA (shMic60); assay: Small-molecule drug screening, cell viability (CellTiterGlo); conditions: drug screen, 72-h incubation, based on IC50 values (FIG. 4A, 4B)
Protocol: (§1) FIG. 4A-FIG. 4I show therapeutic vulnerability of GCN2/Akt signaling exposed by Mic60 depletion. (FIG. 4A and FIG. 4B) PC3 cells transduced with pLKO or shMic60 were analyzed in a high-throughput drug screening (FIG. 4A), and candidate compounds with differential tumor cell killing in shCtrl- or shMic60-transduced cultures (FIG. 4B) were analyzed based on IC50 values (nM). (FIG. 4C) PC3 cells transfected with siMic60 were analyzed for differential ISR gene expression by RNA-Seq. A representative experiment is shown. (FIG. 4D) PC3 cells transfected with siCtrl or siMic60 were analyzed by Western blotting. p, phosphorylated. (FIG. 4E) PC3 cells as in FIG. 4A and FIG. 4B were transfected with ATF4-mScarlet nuclear reporter gene and analyzed by flow cytometry in two independent experiments (Exp). The percentage of cells in gated regions is indicated. (FIG. 4F) Kaplan-Meier survival curves for differential expression of DDIT3 or ATF4 in Mic60-low GBM or pan-kidney cancer cohort comprising kidney chromophobe, kidney renal clear cell carcinoma, and kidney renal papillary cell carcinoma (KIPAN) in the Human Protein Atlas database. The number of patients per each condition and P values are indicated. (FIG. 4G) PC3 cells as in FIG. 4A and FIG. 4B were incubated with vehicle (Veh) or GCN2-IN-1 small-molecule inhibitor to GCN2 and analyzed for Annexin V/PI staining by multiparametric flow cytometry. The percentage of cells in each quadrant is indicated in a representative experiment (n=2). (FIG. 4H) PC3 cells were transfected with siCtrl or GCN2-directed siRNA (siGCN2) and analyzed by Western blotting. (FIG. 4I) PC3 cells were transfected with siCtrl or GCN2-directed siRNA (siGCN2) and analyzed for cell death by Trypan blue exclusion and light microscopy after 72 h. Mean±SD.
Cell viability screening against the MedChem Express anti-cancer library (1,820 compounds) was performed using CellTiterGlo (Promega). PC3 cells stably transduced with pLKO or Mic60-directed shRNA (shMic60) were maintained in complete media, trypsinized, and plated (500 cells/well) in 40 μL of complete medium the day before the experiment in white, clear-bottom 384-well plates. A total of 50 nL of test compound was added to each well using the Janus MDT Nanohead (Perkin-Elmer). Each compound was screened at a final concentration of 10, 1, 0.1, and 0.01 μM. After a 72-h incubation at 37° C. in the presence of 5% CO2, 20 μL of the CellTiterGlo reagent was added to each well. After 15 min, luminescence was measured using the Envision Multimode plate reader (PerkinElmer). The raw data were normalized to % inhibition, where 0% is the relative light units (RLU) in the presence of dimethylsulfoxide, and 100% is the RLU in the presence of 1 μM bortezomib. Estimated half maximal inhibitory concentration (IC50) values for each compound were determined using nonlinear regression fits on the data to a one-site binding model in XlFit (ID Business Solutions Ltd. [IDBS]). Because only 4 data points were used in this calculation, the top and bottom of the curve was fixed to 100% and 0%, respectively, with a constant slope value of 1.

[2] = system: PC3 cells transduced with pLKO or shMic60; assay: Tumor cell proliferation; assay type: cell-based; conditions: for suppression of proliferation, Mic60-depleted vs control transfectants: PC3 cells
[3] = system: PC3 cells transduced with pLKO or shMic60; assay: Annexin V/PI staining by multiparametric flow cytometry; assay type: cell-based; conditions: preferentially in Mic60-silenced PC3 cells compared to control cultures (FIG. 4G)
Protocol: as §1, with “(FIG. 4F) Kaplan-Meier survival curves for differential expression of DDIT3 or ATF4 in Mic60-low GBM or pan-kidney cancer cohort comprising kidney chromophobe, kidney renal clear cell carcinoma, and kidney renal papillary cell carcinoma (KIPAN) in the Human Protein Atlas database. The number of patients per each condition and P values are indicated.” left out, “The percentage of cells in each quadrant is indicated in a representative experiment (n=2).” left out, “Mean±SD.” left out

[4] = system: PC3 cells transduced with pLKO or shMic60; assay: Caspase-dependent cell death; assay type: cell-based
[5] = system: Mic60-silenced tumor cells; assay: Focal adhesion (FA) dynamics after Mic60 silencing; assay type: cell-based
LN229 cells = assay: Single-cell motility by time-lapse videomicroscopy; assay type: cell-based; conditions: Mic60-silenced LN229 cells vs control transfectants
Protocol: (§2) Cells ([…]) were seeded in 4-well Ph+ Chambers (Ibidi) in complete growth medium and allowed to attach for 16 h at 37° C. Time-lapse videomicroscopy was performed over 10 h, with a time-lapse interval of 10 min. Stacks were imported into Image J Fiji software for analysis, and at least 10 to 20 cells per condition were tracked using the Manual Tracking plugin for Image J Fiji. Tracking data were exported into the Chemotaxis and Migration Tool v. 2.0 (Ibidi) for graphing and calculation of the mean and SD of speed and accumulated distance of movement. For directional cell migration, wounds were made in monolayers of PC3 cells using a 10-μL pipette tip. Cell debris were washed off, and cultures were maintained in complete growth medium containing 10% fetal bovine serum at 37° C. and 5% CO2. Time-lapse imaging of migrating cells was performed using a TE300 inverted microscope (Nikon) equipped with an incubator set at 37° C., 5% CO2, and 95% relative humidity. Each image was acquired using a 10× objective of the same fields at each 10-min interval for a total of 24 h.

PC3 cells = assay: Single-cell motility by time-lapse videomicroscopy; assay type: cell-based; conditions: Mic60-silenced PC3 cells vs control transfectants
Protocol: as §2

Mic60-silenced cells = assay: Tumor cell invasion (Matrigel); assay type: cell-based; conditions: Mic60-silenced cells reconstituted with the scavenger
Protocol: FIG. 3A-FIG. 3G show Mic60 regulation of tumor cell motility and metastasis. (FIG. 3A) PC3 cells transduced with pLKO or shMic60 were analyzed for circularity (Top; 1=perfect sphere) and surface area (Bottom). Each symbol corresponds to an individual determination. Min to max values are indicated (pLKO, n=36; shMic60, n=39). *** P<0.0001 to 0.0009. (FIG. 3B) PC3 cells as in FIG. 3A were analyzed by Western blotting. (FIG. 3C) PC3 cells transduced with pLKO or shMic60 were analyzed for single-cell motility in 2D contour plots by time-lapse video microscopy. Each tracing corresponds to the movements of an individual cell (pLKO, n=90; shMic60, n=94). The average speed of cell movements (velocity [Vel], μm/min) and distance traveled (Dis; μm) are indicated. Mean±SD (n=3). P<0.0001. […] (FIG. 3D) PC3 cells as in FIG. 3A or WT or Mic60 KO PC3 cells were analyzed for invasion across Matrigel-coated inserts and quantified. […] (FIG. 3F) PC3 cells as in FIG. 3A were injected into the spleen of NSG mice, and liver samples harvested after 11 d were stained with hematoxylin/eosin, and the number (FIG. 3F, Top) and surface area (FIG. 3F, Bottom) of metastatic foci were quantified by morphometry. […] (FIG. 3G) Matched patient samples of LUAD representative of normal parenchyma (N), primary tumor (P), or metastasis (M) were analyzed for differential Mic60 expression by RT-PCR. […]

SMILES: COc1cc2c(cc1OC)CN(CCc1ccc(NC(=O)c3cc(OC)c(OC)cc3NC(=O)c3cnc4ccccc4c3)cc1)CC2 [Tariquidar]
- differential tumor cell killing, Mic60-silenced vs control cultures [1]: preferential killing against Mic60-low PC3 cells

SMILES: CC1(C)CCC(c2ccc(Cl)cc2)=C(CN2CCN(c3ccc(C(=O)NS(=O)(=O)c4ccc(N[C@H](CCN5CCOCC5)CSc5ccccc5)c(S(=O)(=O)C(F)(F)F)c4)cc3)CC2)C1 [Navitoclax]
- differential tumor cell killing, Mic60-silenced vs control cultures [1]: preferential killing against Mic60-low PC3 cells

SMILES: NC1(c2ccc(-c3nc4ccn5c(=O)[nH]nc5c4cc3-c3ccccc3)cc2)CCC1 [MK2206]
- suppression of proliferation, Mic60-depleted vs control transfectants [2]: suppressed proliferation selectively of Mic60-depleted PC3 cells

SMILES: COc1cc(/C=C/C(=O)CC(=O)/C=C/c2ccc(O)c(OC)c2)ccc1O [curcumin]
- differential tumor cell killing, Mic60-silenced vs control cultures [1]: preferential killing against Mic60-low PC3 cells

SMILES: C/C(=N\NC(=O)c1cccc(S(=O)(=O)N2CCOCC2)c1)c1cc(Cl)ccc1O [SP2509]
- differential tumor cell killing, Mic60-silenced vs control cultures [1]: preferential killing against Mic60-low PC3 cells

SMILES: c1nn(C2CCOCC2)cc1Nc1ncc2nnn(-c3ccc4cn[nH]c4c3)c2n1 [GCN2-IN-1]
- differential tumor cell killing, Mic60-silenced vs control cultures [1]: killed Mic60-silenced PC3 cells more efficiently than control cultures
- proliferation (cell number) with GCN2 inhibitor ([2]; pLKO control PC3 cells): 3.3×10^5±0.62×10^5 cells
- proliferation (cell number) with GCN2 inhibitor ([2]; shMic60 PC3 cells, P=0.009 vs pLKO): 1.95×10^5±0.4×10^5 cells
- Annexin V-associated apoptosis [3]: activated Annexin V-associated apoptosis
- caspase-dependent cell death ([4]; pLKO control PC3 cells): 8.4±6.3%
- caspase-dependent cell death ([4]; shMic60 PC3 cells, P=0.04 vs pLKO): 23.1±5.6%

SMILES: O=c1[nH]c2ccccc2n1C1CCN(Cc2ccc(-c3nc4cc5[nH]cnc5cc4nc3-c3ccccc3)cc2)CC1 [Akt inhibitor VIII]
- differential tumor cell killing, Mic60-silenced vs control cultures [1]: killed Mic60-silenced PC3 cells more efficiently than control cultures
- suppression of proliferation, Mic60-depleted vs control transfectants [2]: suppressed proliferation selectively of Mic60-depleted PC3 cells

SMILES: COc1cc([C@@H]2c3cc4c(cc3[C@H](O)[C@H]3COC(=O)[C@H]23)OCO4)cc(OC)c1OC [podophyllotoxin]
- differential tumor cell killing, Mic60-silenced vs control cultures [1]: preferential killing against Mic60-low PC3 cells

SMILES: C/C(=N\NC(=S)N1CCC1)c1ccccn1 [NSC319726]
- differential tumor cell killing, Mic60-silenced vs control cultures [1]: preferential killing against Mic60-low PC3 cells

SMILES: CS(=O)(=O)N1CCC(NC(=O)c2[nH]ncc2NC(=O)c2c(Cl)cccc2Cl)CC1 [NVP-LCQ195]
- differential tumor cell killing, Mic60-silenced vs control cultures [1]: preferential killing against Mic60-low PC3 cells

SMILES: CN(c1ncccc1CNc1nc(Nc2ccc3c(c2)CC(=O)N3)ncc1C(F)(F)F)S(C)(=O)=O [FAKi]
- FA dynamics [5]: normalized FA dynamics
- single-cell motility (LN229 cells): restored the single-cell motility of PC3 or LN229 cells to levels of control transfectants
- single-cell motility (PC3 cells): restored the single-cell motility of PC3 or LN229 cells to levels of control transfectants

SMILES: CC1(C)CC(NC(=O)C[P+](c2ccccc2)(c2ccccc2)c2ccccc2)CC(C)(C)N1[O] [MitoTempo]
- tumor cell invasion (Mic60-silenced cells): normalized tumor cell invasion to control levels
